Measured values taken from the supplement of paper PMC10307832.

Tests used:
Assay in all cases: relative viability (nuclei count vs DMSO), 5 days (fraction); higher = more cells survive
[1] = compound: C1COCCN1C2=NC(=NC3=C2OC4=C3C=CC=N4)C5=CC(=CC=C5)NC(=O)C6=CN=C(C=C6)N + N=C(N)NC(=N)NCCc1ccccc1 [Phenformin] (partner 250 µM)
Outline: (§1)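 Cells from lung cancer lines were seeded into 1536-well plates and, one day later, dosed by pin tool. Treatments were either a single drug or a fixed dose of an anchor drug with five library-drug doses (not always all listed) in √10 steps. After 5 days, nuclei were stained in a one-step fixation (final 0.05% Triton X-100, 1% formaldehyde, 1 ug/ml Hoechst) and counted on 4× images, and relative viability is the treated-to-vehicle nuclei ratio, as the median of duplicate plates.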

[2] = compound: C1COCCN1C2=NC(=NC3=C2OC4=C3C=CC=N4)C5=CC(=CC=C5)NC(=O)C6=CN=C(C=C6)N + Nc1ncn([C@H]2C[C@H](O)[C@@H](CO)O2)c(=O)n1 [Decitabine] (partner 2 µM)
Outline: as §1

SGI-1776 + Alpelisib = compound: CN1CCC(CNc2ccc3ncc(-c4cccc(OC(F)(F)F)c4)n3n2)CC1 [SGI-1776] + Cc1nc(NC(=O)N2CCC[C@H]2C(N)=O)sc1-c1ccnc(C(C)(C)C(F)(F)F)c1 [Alpelisib] (partner 2 µM)
Outline: as §1

Entinostat + Lapatinib = compound: Nc1ccccc1NC(=O)c1ccc(CNC(=O)OCc2cccnc2)cc1 [Entinostat] + CS(=O)(=O)CCNCc1ccc(-c2ccc3ncnc(Nc4ccc(OCc5cccc(F)c5)c(Cl)c4)c3c2)o1 [Lapatinib] (partner 2 µM)
Outline: as §1

Row | Cell Line | relative viability ([1]; first compound 0.02 µM) | relative viability ([1]; first compound 0.06325 µM) | relative viability ([1]; first compound 0.2 µM) | relative viability ([1]; first compound 0.6325 µM) | relative viability ([1]; first compound 2 µM) | relative viability ([2]; first compound 0.02 µM) | relative viability ([2]; first compound 0.06325 µM) | relative viability ([2]; first compound 0.2 µM) | relative viability ([2]; first compound 0.6325 µM) | relative viability ([2]; first compound 2 µM) | relative viability (SGI-1776 + Alpelisib; first compound 0.08 µM) | relative viability (SGI-1776 + Alpelisib; first compound 0.8 µM) | relative viability (SGI-1776 + Alpelisib; first compound 2.53 µM) | relative viability (SGI-1776 + Alpelisib; first compound 8 µM) | relative viability (Entinostat + Lapatinib; first compound 0.02 µM) | relative viability (Entinostat + Lapatinib; first compound 0.06325 µM) | relative viability (Entinostat + Lapatinib; first compound 0.2 µM) | relative viability (Entinostat + Lapatinib; first compound 0.6325 µM) | relative viability (Entinostat + Lapatinib; first compound 2 µM)
1 | NCI-H2126 | 0.535 | 0.553 | 0.524 | 0.461 | 0.441 | 0.54 | 0.608 | 0.606 | 0.613 | 0.503 | 0.735 | 0.733 | 0.751 | 0.676 | 0.794 | 0.78 | 0.759 | 0.421 | 0.385
2 | NCI-H520 | 0.597 | 0.631 | 0.588 | 0.479 | 0.403 | 0.47 | 0.521 | 0.588 | 0.55 | 0.44 | 0.928 | 0.94 | 0.914 | 0.759 | 1.03 | 0.946 | 0.864 | 0.776 | 0.301
3 | LU99A | 0.845 | 0.876 | 0.78 | 0.371 | 0.255 | 0.864 | 0.745 | 0.937 | 0.806 | 0.445 | 0.614 | 0.525 | 0.552 | 0.406 | 0.957 | 1.04 | 0.863 | 0.617 | 0.592
4 | NCI-H1666 | 0.577 | 0.608 | 0.473 | 0.567 | 0.442 | 0.815 | 0.752 | 0.692 | 0.715 | 0.623 | 1.06 | 1 | 1.01 | 0.49 | 0.624 | 0.564 | 0.566 | 0.282 | 0.264
5 | NCI-H460 | 0.554 | 0.57 | 0.512 | 0.144 | 0.0234 | 0.55 | 0.563 | 0.517 | 0.525 | 0.195 | 0.488 | 0.481 | 0.433 | 0.121 | 1 | 0.761 | 0.462 | 0.0242 | 0.0172
